From patent publication US7138361B2, “Herbicidal heterocycles” (E. I. du Pont de Nemours and Company, priority 2000, dated 2006)

Tests used:
Format in all cases: in vivo
[1] = test system: Surinam grass (Brachiaria decumbens); test: Test B postemergence; details: 13 to 15 days
Summary of the method: (§1)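 Greenhouse test: chemicals are formulated in a surfactant-containing non-phytotoxic solvent and applied either preemergence to planted seeds or postemergence to plants 2 to 18 cm tall. Response is rated visually versus controls after 13 to 15 days, 0 meaning no effect and 100 complete control.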

[2] = test system: barnyardgrass (Echinochloa crus-galli); test: Test B postemergence; details: 13 to 15 days
Summary of the method: as §1

[3] = test system: blackgrass (Alopecurus myosuroides); test: Test B postemergence; details: 13 to 15 days
Summary of the method: as §1

[4] = test system: cocklebur (Xanthium strumarium); test: Test B postemergence; details: 13 to 15 days
Summary of the method: as §1

corn (Zea mays) [5] = test: Test B postemergence; details: 13 to 15 days
Summary of the method: as §1

[6] = test system: crabgrass (Digitaria sanguinalis); test: Test B postemergence; details: 13 to 15 days
Summary of the method: as §1

[7] = test system: giant foxtail (Setaria faberii); test: Test B postemergence; details: 13 to 15 days
Summary of the method: as §1

[8] = test system: lambsquarters (Chenopodium album); test: Test B postemergence; details: 13 to 15 days
Summary of the method: as §1

[9] = test system: morning glory (Ipomoea hederacea); test: Test B postemergence; details: 13 to 15 days
Summary of the method: as §1

[10] = test system: pigweed (Amaranthus retroflexus); test: Test B postemergence; details: 13 to 15 days
Summary of the method: as §1

[11] = test system: velvetleaf (Abutilon theophrasti); test: Test B postemergence; details: 13 to 15 days
Summary of the method: as §1

[12] = test system: wheat (Triticum aestivum); test: Test B postemergence; details: 13 to 15 days
Summary of the method: as §1

wild oat (Avena fatua) = test: Test B postemergence; details: 13 to 15 days
Summary of the method: as §1

[13] = test system: Surinam grass (Brachiaria decumbens); test: Test B preemergence
Summary of the method: as §1

[14] = test system: barnyardgrass (Echinochloa crus-galli); test: Test B preemergence
Summary of the method: as §1

[15] = test system: cocklebur (Xanthium strumarium); test: Test B preemergence
Summary of the method: as §1

corn (Zea mays) [16] = test: Test B preemergence
Summary of the method: as §1

[17] = test system: crabgrass (Digitaria sanguinalis); test: Test B preemergence
Summary of the method: as §1

[18] = test system: giant foxtail (Setaria faberii); test: Test B preemergence
Summary of the method: as §1

[19] = test system: lambsquarters (Chenopodium album); test: Test B preemergence
Summary of the method: as §1

[20] = test system: morning glory (Ipomoea hederacea); test: Test B preemergence
Summary of the method: as §1

[21] = test system: pigweed (Amaranthus retroflexus); test: Test B preemergence
Summary of the method: as §1

rice (Oryza saliva) [22] = test: Test B preemergence
Summary of the method: as §1

[23] = test system: velvetleaf (Abutilon theophrasti); test: Test B preemergence
Summary of the method: as §1

[24] = test system: barnyardgrass (Echinochloa crus-galli); test: Test B flooded paddy test; details: Rate 1000 g/ha, scale of 0 to 100 where 0 is no effect and 100 is complete control, visually evaluated after 13 to 15 days
Summary of the method: (§2)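 Visual injury score on a 0–100 scale, where 100 means complete control, assigned against untreated controls 13 to 15 days after plants at the 2-leaf stage were treated under flooded paddy conditions.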

[25] = test system: duck salad (Heteranthera limosa); test: Test B flooded paddy test; details: Rate 1000 g/ha, scale of 0 to 100 where 0 is no effect and 100 is complete control, visually evaluated after 13 to 15 days
Summary of the method: as §2

rice (Oryza saliva) [26] = test: Test B flooded paddy test; details: Rate 1000 g/ha, scale of 0 to 100 where 0 is no effect and 100 is complete control, visually evaluated after 13 to 15 days
Summary of the method: as §2

[27] = test system: smallflower flatsedge (Cyperus difformis); test: Test B flooded paddy test; details: Rate 1000 g/ha, scale of 0 to 100 where 0 is no effect and 100 is complete control, visually evaluated after 13 to 15 days
Summary of the method: as §2

[28] = Rate 125 g/ha, scale 0 (no effect) to 100 (complete control)
[29] = Rate 500 g/ha, scale 0 to 100, 0 is no effect, 100 is complete control
[30] = Preemergence, Rate 500 g/ha, scale 0 to 100, 0 no effect, 100 complete control
[31] = preemergence, Rate 125 g/ha, scale 0 to 100, 0 no effect, 100 complete control
[32] = preemergence, Rate 125 g/ha, scale of 0 to 100 where 0 is no effect and 100 is complete control, 13 to 15 days

Cc1ccc(N2CCC(n3ccc(C(C)(C)C)n3)C2=O)cc1Cl (stereo not drawn) [Compound 41]
0: Plant response rating, Surinam grass [1, 28] | Plant response rating, Surinam grass [1, 29] | Plant response rating, Barnyardgrass [2, 28] | Plant response rating, Blackgrass [3, 28] | Plant response rating, Blackgrass [3, 29] | Plant response rating, Cocklebur [4, 28] | Plant response rating, Cocklebur [4, 29] | Plant response rating, Corn (corn (Zea mays) [5]; [29]) | Plant response rating, Crabgrass [6, 28] | Plant response rating, Foxtail, Giant [7, 28] | Plant response rating, Foxtail, Giant [7, 29] | Plant response rating, Lambsquarters [8, 28] | Plant response rating, Morningglory [9, 28] | Plant response rating, Pigweed [10, 28] | Plant response rating, Velvetleaf [11, 28] | Plant response rating, Velvetleaf [11, 29] | Plant response rating, Wheat [12, 28] | Plant response rating, Wheat [12, 29] | Plant response rating, Wild Oat (wild oat (Avena fatua); [28]) | Plant response rating, Wild Oat (wild oat (Avena fatua); [29]) | Plant response rating, Surinam grass [13, 30] | Plant response rating, Surinam grass [13, 31] | Plant response rating, Cocklebur [15, 30] | Plant response rating, Cocklebur [15, 31] | Plant response rating, Corn (corn (Zea mays) [16]; [30]) | Plant response rating, Corn (corn (Zea mays) [16]; [31]) | Plant response rating, Crabgrass [17, 30] | Plant response rating, Crabgrass [17, 31] | Plant response rating, Foxtail, Giant [18, 31] | Plant response rating, Morningglory [20, 30] | Plant response rating, Rice (rice (Oryza saliva) [22]; [30]) | Plant response rating, Velvetleaf [23, 30]
40: Plant response rating, Crabgrass [6, 29] | Plant response rating, Barnyardgrass [14, 31] | Plant response rating, Rice (rice (Oryza saliva) [26])
100: Plant response rating, Barnyardgrass [14, 30] | Plant response rating, Lambsquarters [19, 30] | Plant response rating, Lambsquarters [19, 31] | Plant response rating, Pigweed [21, 30] | Plant response rating, Flatsedge [27]
60: Plant response rating, Lambsquarters [8, 29] | Plant response rating, Foxtail, Giant [18, 30]
20: Plant response rating, Morningglory [9, 29]
80: Plant response rating, Pigweed [10, 29]
70: Plant response rating, Barnyardgrass [2, 29] | Plant response rating, Barnyardgrass [24] | Plant response rating, Ducksalad [25]

Cc1ccc(N2CCC(n3ccc(C(C)(C)C)n3)C2=O)cc1C(F)(F)F (stereo not drawn) [Compound 47]
100: Plant response rating, Lambsquarters [19, 30] | Plant response rating, Pigweed [21, 30] | Plant response rating, Pigweed [21, 32] | Plant response rating, Flatsedge [27]
50: Plant response rating, Pigweed [10, 28] | Plant response rating, Pigweed [10, 29]
70: Plant response rating, Lambsquarters [8, 28] | Plant response rating, Barnyardgrass [24] | Plant response rating, Rice (rice (Oryza saliva) [26])
20: Plant response rating, Rice (rice (Oryza saliva) [22]; [30]) | Plant response rating, Ducksalad [25]
0: Plant response rating, Surinam grass [1, 28] | Plant response rating, Surinam grass [1, 29] | Plant response rating, Barnyardgrass [2, 28] | Plant response rating, Barnyardgrass [2, 29] | Plant response rating, Blackgrass [3, 28] | Plant response rating, Blackgrass [3, 29] | Plant response rating, Cocklebur [4, 28] | Plant response rating, Cocklebur [4, 29] | Plant response rating, Corn (corn (Zea mays) [5]; [28]) | Plant response rating, Corn (corn (Zea mays) [5]; [29]) | Plant response rating, Crabgrass [6, 28] | Plant response rating, Crabgrass [6, 29] | Plant response rating, Foxtail, Giant [7, 28] | Plant response rating, Foxtail, Giant [7, 29] | Plant response rating, Morningglory [9, 28] | Plant response rating, Morningglory [9, 29] | Plant response rating, Velvetleaf [11, 28] | Plant response rating, Velvetleaf [11, 29] | Plant response rating, Wheat [12, 28] | Plant response rating, Wheat [12, 29] | Plant response rating, Wild Oat (wild oat (Avena fatua); [28]) | Plant response rating, Wild Oat (wild oat (Avena fatua); [29]) | Plant response rating, Surinam grass [13, 30] | Plant response rating, Surinam grass [13, 32] | Plant response rating, Barnyardgrass [14, 30] | Plant response rating, Barnyardgrass [14, 32] | Plant response rating, Cocklebur [15, 30] | Plant response rating, Cocklebur [15, 32] | Plant response rating, Corn (corn (Zea mays) [16]; [30]) | Plant response rating, Corn (corn (Zea mays) [16]; [32]) | Plant response rating, Crabgrass [17, 30] | Plant response rating, Crabgrass [17, 32] | Plant response rating, Foxtail, Giant [18, 30] | Plant response rating, Foxtail, Giant [18, 32] | Plant response rating, Lambsquarters [19, 32] | Plant response rating, Morningglory [20, 30] | Plant response rating, Morningglory [20, 32] | Plant response rating, Rice (rice (Oryza saliva) [22]; [32]) | Plant response rating, Velvetleaf [23, 30] | Plant response rating, Velvetleaf [23, 32]
90: Plant response rating, Lambsquarters [8, 29]
